Test [1] addresses T1, human 5-HT6 subtype of receptor (Homo sapiens, UniProt P50406). The settings on record: read-out: 5-HT6 receptor affinity (Ki); radioligand 3H-LSD, 60 minute incubation at 37° C.
A further test concerns the target T2, human 5-HT6 receptors (Homo sapiens, UniProt P50406).
T2 construct: expressed in transfected cells; host or cells: HEK293 (stably transfected, G418 selection)
The test is described as follows: functional adenylyl cyclase assay: cAMP accumulation in stably transfected HEK293 cells. The settings on record: 1 uM serotonin. In kind it is cell-based. In general terms: Changes in cAMP serve as a functional read-out for many G protein-coupled receptors.

For test [2], the system named is a number of other receptors including other serotonin receptors such as 5-HT1A and 5-HT7. Briefly: selectivity over other receptors. The settings on record: 5-HT6 versus other receptors incl. 5-HT1A and 5-HT7.
In test [3] the target is T1, human 5-HT6 subtype of receptor. The test is described as follows: biochemical.

Three compounds from patent US6897215B1, “Compounds having 5-HT6 receptor antagonist activity” (NPS Allelix Corp., priority 1999, dated 2005) can be followed below.

SMILES strings stand for the structures. Where two headings read alike, the source gives them in different places.

T1 sequence (P50406 whole entry): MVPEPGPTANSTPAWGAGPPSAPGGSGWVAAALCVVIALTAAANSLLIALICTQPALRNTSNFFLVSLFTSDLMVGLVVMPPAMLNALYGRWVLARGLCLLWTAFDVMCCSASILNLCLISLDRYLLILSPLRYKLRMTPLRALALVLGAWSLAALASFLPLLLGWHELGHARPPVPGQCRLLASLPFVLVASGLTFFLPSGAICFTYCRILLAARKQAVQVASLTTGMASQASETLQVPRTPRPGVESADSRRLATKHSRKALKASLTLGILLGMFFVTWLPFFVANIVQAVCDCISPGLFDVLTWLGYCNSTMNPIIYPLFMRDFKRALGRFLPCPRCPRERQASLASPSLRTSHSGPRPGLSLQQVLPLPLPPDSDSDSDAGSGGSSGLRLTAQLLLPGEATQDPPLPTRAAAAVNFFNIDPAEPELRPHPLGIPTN
T2 sequence (P50406 whole entry): as above
Description for human 5-HT6 receptors: The antagonist property of the compounds at the human 5-HT6 receptors was determined by testing their effect on cAMP accumulation in stably transfected HEK293 cells. […] A compound that is an agonist will show an increase in cAMP production and a compound that is an antagonist will block the agonist effect Human 5-HT6 receptors were cloned and stably expressed in HEK293 cells. These cells were plated in 6 well plates in DMEM/F12 media with 10% fetal calf serum (FCS) and 500 ug/mL G418 and incubated at 37° C. in a CO2 incubator. The cells were allowed to grow to about 70% confluence before initiation of the experiment. On the day of the experiment, the culture media was removed, and the cells were washed once with serum free medium (SFM). Two mL of SFM+IBMX media was added and incubated at 37° C. for 10 min. […] The tubes were centrifuged for 5 min at 4° C., and the supernatants were stored at 4° C. until assayed. cAMP content was determined by EIA (enzyme-immunoassay) using the Amersham Biotrak cAMP EIA kit (Amersham RPN 225). […] Briefly, cAMP is determined by the competition between unlabeled cAMP and a fixed quantity of peroxidase-labelled cAMP for the binding sites on anti-cAMP antibody. […] The reaction is stopped by the addition of 100 uL 1.0 M sulphuric acid and the resultant color read by a microtitre plate spectrophotometer at 450 nM within 30 minutes.

On to `O=S(=O)(c1cccc2ccccc12)n1ccc2ccc(C3CCN4CCCC4C3)cc21` [Example 5F (12), 6-[(7-R,S)(8a-R,S)-Octahydroindolizin-7-yl]-1-naphthylsulfonyl-indole], for which the Ki in test [1] was 0.8 nM.
With `O=S(=O)(c1cccc2ccccc12)n1ccc2ccc(N3CCN4CCCC4C3)cc21` (stereo not drawn) [Example 4a, 6-[6,5-Bicyclopiperazinyl]-1-[1-naphthylenesulphonyl]indole], at human 5-HT6 receptors, inhibition was half-maximal at 7.2 nM (IC50) and the “antagonist property at the 5-HT6 receptor” value is on record as “competitive antagonist”. For the same compound, the Ki in test [1] stood at 0.2 nM. Moreover, in test [2], the “selectivity over other receptors” value was “good selectivity”.
As for `O=S(=O)(c1cccc2ccccc12)n1ccc2ccc(C3CCN4CCCC4C3)cc21` (single isomer, unassigned) [Example 5F (13)], the affinity in test [3], expressed as Ki, was 0.7 nM.

The term Ki denotes a dissociation constant, usually derived from enzyme kinetics or from competition with a known ligand. A word on the IC50: it is the midpoint of a concentration-inhibition curve. The low end stands for higher potency, the high end for lower potency.
